Assay [1] relates to human lung cancer cell NCI-H460. Description: Tumor cell viability by MTT assay. The settings on record: Homo sapiens, NCI-H460, 96 h. The format is cell-based. How it is done:
After 24 hours, 100 μL of fresh medium containing different concentrations of test compounds and the corresponding solvent control was added into each well to a final concentration of DMSO less than 0.2%. Six to nine concentration groups were set for each test compound, and three parallel wells were set for each group. The plate was incubated at 5% CO2, 37° C. for 96 hours. 20 μL of freshly prepared PBS solution containing 5 mg/mL MTT was added to each well. The supernatant was discarded after incubation for another 4 hours. 150 μL DMSO was added to each well to dissolve the MTT formazan precipitate. After being mixed by a micro-oscillator, the optical density (OD) was measured at the wavelength of 570 nm, and the tumor cells treated with DMSO were used as a control group.

The target of another assay is PI3Kα (Homo sapiens (Human), UniProt P42336). Description: Biochemical evaluation of activity of PI3Kα (Kinase-Glo luminescence kinase assay). Particulars: 25 μM ATP, 50 μM PIP2, 1 h at room temperature. As for the experimental part:
The potency of compounds in the present intention against PI3Kα was assessed by in vitro kinase assay. The kinase activity of PI3Kα was determined by detecting the level of ADP produced in the kinase reaction with luciferase-based luminescence detection.
The Kinase-Glo™ Kinase Assay Kit was purchased from Promega. All assays were performed at room temperature using white OptiPlate™-384 well plate. The PI3Kα kinase was purchased from Invitrogen. The substrate was PIP2 from Invitrogen. The kinase buffer contained 50 mM Hepes (pH 7.5), 3 mM MgCl2, 100 mM NaCl, 1 mM EGTA, 0.03% CHAPS and 2 mM DTT. […] The substrate solution contained 100 μM PIP2 and 50 μM ATP. The test compound was diluted to 10 mM in 100% DMSO and serially diluted three times into ten different concentrations in 100% DMSO. The compound diluted in 100% DMSO was diluted 25-fold in 1×kinase buffer. 2.5 μL of the diluted compound solution and 2.5 μL PI3Kα kinase solution were added to each well of a 384-well plate. The reaction was initiated by addition of 5 μL substrate solution to each well. […] The plate was then covered and the reaction was allowed to proceed for one hour at room temperature, followed by the addition of 10 μL Kinase-Glo™ reagent to each well to stop the reaction.
The percentage of inhibition was calculated as follows: Inhibition %=100−(max−sample RLU)/(max−min)*100
wherein sample RLU was the luminescence reading for a given compound concentration, min was the reading of DMSO control, and max was the reading of the enzyme-free control. The IC50 value was calculated with the XLfit program in Excel.

Sequence of PI3Kα (P42336 whole entry): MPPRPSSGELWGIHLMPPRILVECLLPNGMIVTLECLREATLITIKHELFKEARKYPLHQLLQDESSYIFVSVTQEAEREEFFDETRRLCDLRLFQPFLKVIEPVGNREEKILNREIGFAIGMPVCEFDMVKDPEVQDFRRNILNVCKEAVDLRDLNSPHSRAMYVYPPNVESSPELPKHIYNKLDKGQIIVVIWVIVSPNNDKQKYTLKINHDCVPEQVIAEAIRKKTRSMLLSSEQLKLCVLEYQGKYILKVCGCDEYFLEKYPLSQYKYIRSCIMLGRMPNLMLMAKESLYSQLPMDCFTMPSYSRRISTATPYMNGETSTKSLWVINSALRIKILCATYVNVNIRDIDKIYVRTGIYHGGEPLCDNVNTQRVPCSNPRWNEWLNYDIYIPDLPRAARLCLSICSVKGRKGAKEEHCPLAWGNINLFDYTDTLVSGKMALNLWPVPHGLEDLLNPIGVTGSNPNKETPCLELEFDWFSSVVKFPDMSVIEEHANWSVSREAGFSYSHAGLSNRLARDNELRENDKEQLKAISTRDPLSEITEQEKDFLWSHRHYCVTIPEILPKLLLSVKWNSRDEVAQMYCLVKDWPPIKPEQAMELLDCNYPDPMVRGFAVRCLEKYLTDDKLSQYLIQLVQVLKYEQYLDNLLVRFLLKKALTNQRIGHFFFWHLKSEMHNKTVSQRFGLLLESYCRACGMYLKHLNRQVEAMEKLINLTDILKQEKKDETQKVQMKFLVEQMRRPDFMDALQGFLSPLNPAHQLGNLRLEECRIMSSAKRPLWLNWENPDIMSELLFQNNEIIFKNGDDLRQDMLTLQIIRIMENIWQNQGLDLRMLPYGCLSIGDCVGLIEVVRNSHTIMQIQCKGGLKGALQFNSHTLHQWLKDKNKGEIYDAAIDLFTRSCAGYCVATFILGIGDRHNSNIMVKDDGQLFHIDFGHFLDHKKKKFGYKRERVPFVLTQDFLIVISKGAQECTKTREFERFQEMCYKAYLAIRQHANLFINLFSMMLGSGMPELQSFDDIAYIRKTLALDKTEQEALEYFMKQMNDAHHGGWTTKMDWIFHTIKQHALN
Sequence of PI3Kα (P27986 whole entry partner): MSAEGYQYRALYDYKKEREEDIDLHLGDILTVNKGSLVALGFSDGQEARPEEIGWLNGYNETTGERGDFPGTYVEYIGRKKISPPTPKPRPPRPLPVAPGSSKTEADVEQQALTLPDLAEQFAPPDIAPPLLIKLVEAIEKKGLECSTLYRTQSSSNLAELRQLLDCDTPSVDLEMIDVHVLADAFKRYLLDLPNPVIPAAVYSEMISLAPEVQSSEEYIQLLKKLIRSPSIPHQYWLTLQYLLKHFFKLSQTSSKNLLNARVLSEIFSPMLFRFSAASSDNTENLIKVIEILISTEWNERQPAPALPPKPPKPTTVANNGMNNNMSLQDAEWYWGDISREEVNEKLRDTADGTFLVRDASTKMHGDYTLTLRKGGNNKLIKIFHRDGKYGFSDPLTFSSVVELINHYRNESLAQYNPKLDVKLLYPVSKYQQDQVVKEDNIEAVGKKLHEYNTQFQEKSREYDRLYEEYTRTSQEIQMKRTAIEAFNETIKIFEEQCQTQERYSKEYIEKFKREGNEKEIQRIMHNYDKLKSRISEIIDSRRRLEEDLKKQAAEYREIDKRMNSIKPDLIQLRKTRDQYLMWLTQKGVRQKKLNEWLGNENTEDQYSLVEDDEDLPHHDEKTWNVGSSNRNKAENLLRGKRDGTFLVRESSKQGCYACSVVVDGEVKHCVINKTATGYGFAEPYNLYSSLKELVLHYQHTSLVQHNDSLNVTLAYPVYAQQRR

For `COc1ncc(-c2cc(O[C@H]3CCOC3)c3nc(N)nc(C)c3c2)cc1NS(C)(=O)=O` [Example 12, (S)—N-(5-(2-amino-4-methyl-8-((tetrahydrofuran-3-yl)oxy)quinazolin-6-yl)-2-methoxypyridin-3-yl)methanesulfonamide], the IC50 was determined as 2300 nM in assay [1] and 4.5 nM against PI3Kα.

With `COc1ncc(-c2cc(OCC3CCOCC3)c3nc(N)nc(C)c3c2)cc1NS(=O)(=O)c1ccc(F)cc1F` [Example 13, N-(5-(2-amino-4-methyl-8-((tetrahydro-2H-pyran-4-yl)methoxy)quinazolin-6-yl)-2-methoxypyridin-3-yl)-2,4-difluorobenzenesulfonamide], the IC50 in assay [1] amounted to 21 nM; on PI3Kα, 0.84 nM.

Take `COc1ncc(-c2cc(OCC3CCOCC3)c3nc(N)nc(C)c3c2)cc1NS(C)(=O)=O` [Example 14, N-(5-(2-amino-4-methyl-8-((tetrahydro-2H-pyran-4-yl)methoxy)quinazolin-6-yl)-2-methoxypyridin-3-yl)methanesulfonamide]: the IC50 amounted to 2000 nM in assay [1] and 3.3 nM on PI3Kα.

On to `COc1ncc(-c2cc(OC3CCN(C)CC3)c3nc(N)nc(C)c3c2)cc1NS(=O)(=O)c1ccc(F)cc1F` [Example 15, N-(5-(2-amino-4-methyl-8-((1-methylpiperidin-4-yl)oxy)quinazolin-6-yl)-2-methoxypyridin-3-yl)-2,4-difluorobenzenesulfonamide], for which the IC50 in assay [1] was determined as 660 nM; at PI3Kα it was 5.5 nM.

For `COc1ncc(-c2cc(OCCN3CCOCC3)c3nc(N)nc(C)c3c2)cc1NS(=O)(=O)c1ccc(F)cc1F` [Example 16, N-(5-(2-amino-4-methyl-8-(2-morpholinoethoxy)quinazolin-6-yl)-2-methoxypyridin-3-yl)-2,4-difluorobenzenesulfonamide], the concentration for half-maximal inhibition (IC50) in assay [1] came to 1100 nM; against PI3Kα, 4.1 nM.

With `COc1ncc(-c2cc(OC3CCC(F)(F)CC3)c3nc(N)nc(C)c3c2)cc1NS(=O)(=O)c1ccc(F)cc1F` [Example 17, N-(5-(2-amino-8-((4,4-difluorocyclohexyl)oxy)-4-methylquinazolin-6-yl)-2-methoxypyridin-3-yl)-2,4-difluorobenzenesulfonamide], the IC50 is 83 nM in assay [1] and 2.3 nM on PI3Kα.

For the molecule `COc1ncc(-c2cc(OC3CCCCC3)c3nc(N)nc(C)c3c2)cc1NS(=O)(=O)c1ccc(F)cc1F` [Example 22, N-(5-(2-amino-8-(cyclohexyloxy)-4-methylquinazolin-6-yl)-2-methoxypyridin-3-yl)-2,4-difluorobenzenesulfonamide], the IC50 turned out to be 96 nM in assay [1] and 0.6 nM on PI3Kα.

Take `COCCOc1cc(-c2cnc(OC)c(NS(=O)(=O)c3ccc(F)cc3F)c2)cc2c(C)nc(N)nc12` [Example 25, N-(5-(2-amino-8-(2-methoxyethoxy)-4-methylquinazolin-6-yl)-2-methoxypyridin-3-yl)-2,4-difluorobenzenesulfonamide]: the IC50 is 200 nM in assay [1] and 1.6 nM against PI3Kα.

Turning to `COc1ncc(-c2cc(OC(C)C)c3nc(N)nc(C)c3c2)cc1NS(=O)(=O)c1ccc(F)cc1F` [Example 26, N-(5-(2-amino-8-isopropoxy-4-methylquinazolin-6-yl)-2-methoxypyridin-3-yl)-2,4-difluorobenzenesulfonamide], the results for the IC50 (in assay [1]; against PI3Kα) were 140 nM and 0.79 nM, respectively.

On to `COc1ncc(-c2cc(OCC3CC3)c3nc(N)nc(C)c3c2)cc1NS(=O)(=O)c1ccc(F)cc1F` [Example 27, N-(5-(2-amino-8-(cyclopropylmethoxy)-4-methylquinazolin-6-yl)-2-methoxypyridin-3-yl)-2,4-difluorobenzenesulfonamide], for which the IC50 came to 200 nM in assay [1] and 1.7 nM at PI3Kα.

Consider `COc1ncc(-c2cc(OC)c3nc(N)nc(C)c3c2)cc1NS(=O)(=O)c1ccc(F)cc1F` [Example 28, N-(5-(2-amino-8-methoxy-4-methylquinazolin-6-yl)-2-methoxypyridin-3-yl)-2,4-difluorobenzenesulfonamide], for which the IC50 came to 280 nM in assay [1] and 1.2 nM against PI3Kα.

On to `CNc1nc(C)c2cc(-c3cnc(OC)c(NS(=O)(=O)c4ccc(F)cc4F)c3)cc(OC3CCOCC3)c2n1` [Example 29, N-(2-methoxy-5-(4-methyl-2-(methylamino)-8-((tetrahydro-2H-pyran-4-yl)oxy)quinazolin-6-yl)pyridin-3-yl)-2,4-difluorobenzenesulfonamide], for which the IC50 in assay [1] turned out to be 59 nM; against PI3Kα it was 1.1 nM.

As to `CCNc1nc(C)c2cc(-c3cnc(OC)c(NS(=O)(=O)c4ccc(F)cc4F)c3)cc(OC3CCOCC3)c2n1` [Example 30, N-(5-(2-(ethylamino)-4-methyl-8-((tetrahydro-2H-pyran-4-yl)oxy)quinazolin-6-yl)-2-methoxypyridin-3-yl)-2,4-difluorobenzenesulfonamide], the IC50 was 240 nM in assay [1] and 1.3 nM at PI3Kα.

For the molecule `COc1ncc(-c2cc(OC3CCOCC3)c3nc(NCC4CC4)nc(C)c3c2)cc1NS(=O)(=O)c1ccc(F)cc1F` [Example 31, N-(5-(2-((cyclopropylmethyl)amino)-4-methyl-8-((tetrahydro-2H-pyran-4-yl)oxy)quinazolin-6-yl)-2-methoxypyridin-3-yl)-2,4-difluorobenzenesulfonamide], the IC50 in assay [1] amounted to 410 nM; against PI3Kα, 3.8 nM.

Regarding `CNc1nc(C)c2cc(-c3cnc(OC)c(NS(=O)(=O)c4ccc(F)cc4Cl)c3)cc(O[C@@H]3CCOC3)c2n1` [Example 33, (R)—N-(2-methoxy-5-(4-methyl-2-(methylamino)-8-((tetrahydrofuran-3-yl)oxy)quinazolin-6-yl)pyridin-3-yl)-2-chloro-4-fluorobenzenesulfonamide], the IC50 in assay [1] is 100 nM; against PI3Kα it was 1.7 nM.

Consider `CNc1nc(C)c2cc(-c3cnc(OC)c(NS(=O)(=O)c4ccc(Cl)s4)c3)cc(O[C@@H]3CCOC3)c2n1` [Example 34, (R)—N-(2-methoxy-5-(4-methyl-2-(methylamino)-8-((tetrahydrofuran-3-yl)oxy)quinazolin-6-yl)pyridin-3-yl)-5-chlorothiophene-2-sulfonamide], for which the results for the IC50 (in assay [1]; at PI3Kα) were 110 nM and 1.6 nM, respectively.

Turning to `CNc1nc(C)c2cc(-c3cnc(OC)c(NS(=O)(=O)c4ccc(F)cc4F)c3)cc(OCC3CCOCC3)c2n1` [Example 36, N-(2-methoxy-5-(4-methyl-2-(methylamino)-8-((tetrahydro-2H-pyran-4-yl)methoxy)quinazolin-6-yl)pyridin-3-yl)-2,4-difluoro-benzenesulfonamide], the IC50 in assay [1] came out at 400 nM; against PI3Kα, 2.2 nM.

With `CNc1nc(C)c2cc(-c3cnc(OC)c(NS(=O)(=O)c4ccc(F)cc4F)c3)cc(OC3CCOC(C)(C)C3)c2n1` (centres unmarked) [Example 37, N-(5-(8-((2,2-dimethyltetrahydro-2H-pyran-4-yl)oxy)-4-methyl-2-(methylamino)quinazolin-6-yl)-2-methoxypyridin-3-yl)-2,4-difluorobenzenesulfonamide], the values for the IC50 (in assay [1]; against PI3Kα) were 250 nM and 2.3 nM, respectively.

`CNc1nc(C)c2cc(-c3cnc(OC)c(NS(=O)(=O)c4ccc(F)cc4F)c3)cc(OCC3CCOC3)c2n1` (centres unmarked) [Example 38, N-(2-methoxy-5-(4-methyl-2-(methylamino)-8-((tetrahydrofuran-3-yl)methoxy)quinazolin-6-yl)pyridin-3-yl)-2,4-difluorobenzenesulfonamide]: the IC50 is 310 nM in assay [1] and 2.3 nM against PI3Kα.

With `CNc1nc(C)c2cc(-c3cnc(OC)c(NS(=O)(=O)c4ccc(F)cc4F)c3)cc(OC3CCCCC3)c2n1` [Example 39, N-(5-(8-(cyclohexyloxy)-4-methyl-2-(methylamino)quinazolin-6-yl)-2-methoxypyridin-3-yl)-2,4-difluorobenzenesulfonamide], the IC50 stood at 1700 nM in assay [1] and 15 nM against PI3Kα.

Consider `COc1ncc(-c2cc(OC3CCOCC3)c3nc(NC(C)=O)nc(C)c3c2)cc1NS(=O)(=O)c1ccc(F)cc1F` [Example 42, N-(6-(5-(2,4-difluorophenylsulfonamido)-6-methoxypyridin-3-yl)-4-methyl-8-((tetrahydro-2H-pyran-4-yl)oxy)quinazolin-2-yl)acetamide], for which the IC50 stood at 530 nM in assay [1] and 1.1 nM on PI3Kα.

Regarding `COc1ncc(-c2cc(OC3CCOCC3)c3nc(NC(C)=O)nc(C)c3c2)cc1NS(C)(=O)=O` [Example 43, N-(6-(6-methoxy-5-(methylsulfonamido)pyridin-3-yl)-4-methyl-8-((tetrahydro-2H-pyran-4-yl)oxy)quinazolin-2-yl)acetamide], the IC50 in assay [1] came to 4000 nM; at PI3Kα, 10 nM.

One may read the IC50 as the point on the concentration scale where inhibition reaches its midpoint.

The values above are taken from patent US11534443B2, “Quinazoline compounds, preparation method, use, and pharmaceutical composition thereof” (INSTITUTE OF MATERIA MEDICA, CHINESE ACADEMY OF MEDICAL …, priority 2016, dated 2022).
